Experimental data reported in patent US12077503B2, “Substituted cyclic amides and their use as herbicides” (FMC CORPORATION, priority 2015, dated 2024).

Columns and labels:
Assay type in all cases: in vivo
Kochia (Kochia scoparia) [1] = test: Test A preemergence; conditions: Bassia scoparia, pre-emergence, 240 h, preemergence, 0 to 100 scale where 0 is no effect and 100 is complete control, read-out: Kochia plant response rating
In short: (§1)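 Treatment is preemergence as a directed soil spray after planting, or postemergence at the one- to two-leaf stage, with test chemical in a non-phytotoxic solvent mixture plus surfactant. Plants stay in the greenhouse about 10 d before visual injury scoring on a 0 to 100 scale versus untreated controls.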

[2] = tested on: barnyardgrass (Echinochloa crus-galli); test: Test A preemergence; conditions: Echinochloa crus-galli, pre-emergence, 240 h, preemergence, 0 to 100 scale where 0 is no effect and 100 is complete control, read-out: Barnyardgrass plant response rating
In short: as §1

[3] = tested on: giant foxtail (Setaria faberii); test: Test A preemergence; conditions: Setaria faberi, pre-emergence, 240 h, preemergence, 0 to 100 scale where 0 is no effect and 100 is complete control, read-out: Foxtail, Giant plant response rating
In short: as §1

[4] = tested on: pigweed (Amaranthus retroflexus); test: Test A preemergence; conditions: Amaranthus retroflexus, pre-emergence, 240 h, preemergence, 0 to 100 scale where 0 is no effect and 100 is complete control, read-out: Pigweed plant response rating
[5] = tested on: ragweed (common ragweed, Ambrosia elatior); test: Test A preemergence; conditions: Ambrosia artemisiifolia, pre-emergence, 240 h, preemergence, 0 to 100 scale where 0 is no effect and 100 is complete control, read-out: Ragweed plant response rating
In short: as §1

[6] = tested on: ryegrass, Italian (Italian ryegrass, Lolium multiflorum); test: Test A preemergence; conditions: Lolium multiflorum, pre-emergence, 240 h, preemergence, 0 to 100 scale where 0 is no effect and 100 is complete control, read-out: Ryegrass, Italian plant response rating
In short: as §1

[7] = tested on: Galium (catchweed bedstraw, Galium aparine); test: Test A postemergence; conditions: Galium, post-emergence, 240 h, postemergence
In short: as §1

Kochia (Kochia scoparia) [8] = test: Test A postemergence; conditions: Bassia scoparia, post-emergence, 240 h, postemergence
In short: as §1

[9] = tested on: barnyardgrass (Echinochloa crus-galli); test: Test A postemergence; conditions: Echinochloa crus-galli, post-emergence, 240 h, postemergence
In short: as §1

corn (Zea mays) = test: Test A postemergence; conditions: Zea mays, post-emergence, 240 h, postemergence
In short: as §1

[10] = tested on: giant foxtail (Setaria faberii); test: Test A postemergence; conditions: Setaria faberi, post-emergence, 240 h, postemergence
In short: as §1

[11] = tested on: pigweed (Amaranthus retroflexus); test: Test A postemergence; conditions: Amaranthus retroflexus, post-emergence, 240 h, postemergence
In short: as §1

[12] = tested on: ragweed (common ragweed, Ambrosia elatior); test: Test A postemergence; conditions: Ambrosia artemisiifolia, post-emergence, 240 h, postemergence
In short: as §1

[13] = tested on: ryegrass, Italian (Italian ryegrass, Lolium multiflorum); test: Test A postemergence; conditions: Lolium multiflorum, post-emergence, 240 h, postemergence
In short: as §1

[14] = tested on: wheat (Triticum aestivum); test: Test A postemergence; conditions: Triticum aestivum, post-emergence, 240 h, postemergence
In short: as §1

O=C1NC[C@H](c2nccs2)[C@H]1C(=O)Nc1cccc(F)c1F [Compound 1182]
0%: pest or weed control at 125 g/ha (Kochia (Kochia scoparia) [1]; 125 g ai/ha, approx. 10 d) | pest or weed control at 500 g/ha (Kochia (Kochia scoparia) [1]; 500 g ai/ha) | pest or weed control at 125 g/ha ([2]; 125 g ai/ha, approx. 10 d) | pest or weed control at 500 g/ha ([2]; 500 g ai/ha) | pest or weed control at 125 g/ha ([3]; 125 g ai/ha, approx. 10 d) | pest or weed control at 500 g/ha ([3]; 500 g ai/ha) | pest or weed control at 125 g/ha ([4]; 125 g ai/ha, approx. 10 d) | pest or weed control at 500 g/ha ([4]; 500 g ai/ha) | pest or weed control at 125 g/ha ([5]; 125 g ai/ha, approx. 10 d) | pest or weed control at 500 g/ha ([5]; 500 g ai/ha) | pest or weed control at 125 g/ha ([6]; 125 g ai/ha, approx. 10 d) | pest or weed control at 500 g/ha ([6]; 500 g ai/ha) | pest or weed control at 125 g/ha ([7]; 125 g ai/ha, visual injury vs untreated controls after approx. 10 d, 0 = no effect, 100 = complete control, read-out: Galium plant response rating (0 to 100 scale)) | pest or weed control at 500 g/ha ([7]; 500 g ai/ha, 0 to 100 scale, 0 is no effect, 100 is complete control, read-out: Galium plant response rating) | pest or weed control at 125 g/ha (Kochia (Kochia scoparia) [8]; 125 g ai/ha, visual injury vs untreated controls after approx. 10 d, 0 = no effect, 100 = complete control, read-out: Kochia plant response rating (0 to 100 scale)) | pest or weed control at 500 g/ha (Kochia (Kochia scoparia) [8]; 500 g ai/ha, 0 to 100 scale, 0 is no effect, 100 is complete control, read-out: Kochia plant response rating) | pest or weed control at 125 g/ha ([9]; 125 g ai/ha, visual injury vs untreated controls after approx. 10 d, 0 = no effect, 100 = complete control, read-out: Barnyardgrass plant response rating (0 to 100 scale)) | pest or weed control at 500 g/ha ([9]; 500 g ai/ha, 0 to 100 scale, 0 is no effect, 100 is complete control, read-out: Barnyardgrass plant response rating) | plant injury at 125 g/ha (corn (Zea mays); 125 g ai/ha, visual injury vs untreated controls after approx. 10 d, 0 = no effect, 100 = complete control, read-out: Corn plant response rating (0 to 100 scale)) | plant injury at 500 g/ha (corn (Zea mays); 500 g ai/ha, 0 to 100 scale, 0 is no effect, 100 is complete control, read-out: Corn plant response rating) | pest or weed control at 125 g/ha ([10]; 125 g ai/ha, visual injury vs untreated controls after approx. 10 d, 0 = no effect, 100 = complete control, read-out: Foxtail, Giant plant response rating (0 to 100 scale)) | pest or weed control at 500 g/ha ([10]; 500 g ai/ha, 0 to 100 scale, 0 is no effect, 100 is complete control, read-out: Foxtail, Giant plant response rating) | pest or weed control at 125 g/ha ([11]; 125 g ai/ha, visual injury vs untreated controls after approx. 10 d, 0 = no effect, 100 = complete control, read-out: Pigweed plant response rating (0 to 100 scale)) | pest or weed control at 500 g/ha ([11]; 500 g ai/ha, 0 to 100 scale, 0 is no effect, 100 is complete control, read-out: Pigweed plant response rating) | pest or weed control at 125 g/ha ([12]; 125 g ai/ha, visual injury vs untreated controls after approx. 10 d, 0 = no effect, 100 = complete control, read-out: Ragweed plant response rating (0 to 100 scale)) | pest or weed control at 500 g/ha ([12]; 500 g ai/ha, 0 to 100 scale, 0 is no effect, 100 is complete control, read-out: Ragweed plant response rating) | pest or weed control at 125 g/ha ([13]; 125 g ai/ha, visual injury vs untreated controls after approx. 10 d, 0 = no effect, 100 = complete control, read-out: Ryegrass, Italian plant response rating (0 to 100 scale)) | pest or weed control at 500 g/ha ([13]; 500 g ai/ha, 0 to 100 scale, 0 is no effect, 100 is complete control, read-out: Ryegrass, Italian plant response rating) | plant injury at 125 g/ha ([14]; 125 g ai/ha, visual injury vs untreated controls after approx. 10 d, 0 = no effect, 100 = complete control, read-out: Wheat plant response rating (0 to 100 scale)) | plant injury at 500 g/ha ([14]; 500 g ai/ha, 0 to 100 scale, 0 is no effect, 100 is complete control, read-out: Wheat plant response rating)
